Results as given in patent US10730889B2, “Amido spirocyclic amide and sulfonamide derivatives” (Forma TM, LLC, priority 2012, dated 2020).

System: A2780 cells
Test: In-vitro cell proliferation assay (SRB, 72 hours)
Type: cell-based
Conditions: Homo sapiens, A2780, 72 h, A2780 cells, 72 hours, SRB; read-out: Cell Proliferation (IC50)

Row | SMILES | IC50 [nM]
1 | O=C(NCC1CC12CCN(C(=O)c1ccc(CN3CCCC3)cc1)CC2)c1cc2ccncc2o1 (centres unmarked) [Example 248, N-[[6-[4-(pyrrolidin-1-ylmethyl)benzoyl]-6-azaspiro[2.5]octan-2-yl]methyl]furo[2,3-c]pyridine-2-carboxamide] | 4.39
2 | O=C(NCC1CC12CCN(C(=O)c1cccc(Cn3cncn3)c1)CC2)c1cc2ccncc2o1 (centres unmarked) [Example 249, N-[[6-[3-(1,2,4-triazol-1-ylmethyl)benzoyl]-6-azaspiro[2.5]octan-2-yl]methyl]furo[2,3-c]pyridine-2-carboxamide] | 935
3 | O=C(NCC1CC12CCN(C(=O)c1ccccc1Cn1cncn1)CC2)c1cc2ccncc2o1 (centres unmarked) [Example 250, N-[[6-[2-(1,2,4-triazol-1-ylmethyl)benzoyl]-6-azaspiro[2.5]octan-2-yl]methyl]furo[2,3-c]pyridine-2-carboxamide] | 2000
4 | O=C(NCC1CC12CCN(C(=O)c1ccc(Cn3cncn3)cc1)CC2)c1cc2ccncc2o1 (centres unmarked) [Example 251, N-[[6-[4-(1,2,4-triazol-1-ylmethyl)benzoyl]-6-azaspiro[2.5]octan-2-yl]methyl]furo[2,3-c]pyridine-2-carboxamide] | 215
5 | O=C(NCC1CC12CCN(C(=O)c1cccc(Cn3ccnc3)c1)CC2)c1cc2ccncc2o1 (centres unmarked) [Example 252, N-[[6-[3-(imidazol-1-ylmethyl)benzoyl]-6-azaspiro[2.5]octan-2-yl]methyl]furo[2,3-c]pyridine-2-carboxamide] | 344
6 | O=C(NCC1CC12CCN(C(=O)c1ccc(-n3ccnc3)cc1)CC2)c1cc2ccncc2o1 (centres unmarked) [Example 253, N-[[6-(4-imidazol-1-ylbenzoy)-6-azaspiro[2.5]octan-2-yl]methyl]furo[2,3-c]pyridine-2-carboxamide] | 55.4
7 | O=C(NCC1CC12CCN(C(=O)c1ccc(-c3ncn[nH]3)cc1)CC2)c1cc2ccncc2o1 (centres unmarked) [Example 254, N-[[6-(4-(1H-1,2,4-triazol-5-yl)benzoyl]-6-azaspiro[2.5]octan-2-yl]methyl]furo[2,3-c]pyridine-2-carboxamide] | 13
8 | O=C(NCC1CC12CCN(C(=O)c1ccc(-n3ccnc3)nc1)CC2)c1cc2ccncc2o1 (centres unmarked) [Example 255, N-[[6-(6-imidazol-1-ylpyridine-3-carbonyl)-6-azaspiro[2.5]octan-2-yl]methyl]furo[2,3-c]pyndine-2-carboxamide] | 179
9 | O=C(NCC1CC12CCN(C(=O)c1cc(C(F)(F)F)ccn1)CC2)c1cc2ccncc2o1 (centres unmarked) [Example 256, N-[[6-[4-(trifluoromethyl]pyridine-2-carbonyl]6-azaspiro[2.5]octan-2-yl]methyl]furo[2,3-c]pyridine-2-carboxamide] | 596
10 | O=C(NCC1CC12CCN(C(=O)c1ccc(C(F)(F)F)nc1)CC2)c1cc2ccncc2o1 (centres unmarked) [Example 257, N-[[6-[6-(trifluoromethyl]pyndine-3-carbonyl]-6-azaspiro[2.5]octan-2-yl]methyl]furo[2,3-c]pyridine-2-carboxamide] | 2000
11 | O=C1COc2ccc(C(=O)N3CCC4(CC3)CC4CNC(=O)c3cc4ccncc4o3)cc2N1 (centres unmarked) [Example 258, N-[[6-(3-oxo-4H-1,4-benzoxazine-6-carbonyl)-6-azaspiro[2.5]octan-2-yl]methyl]furo[2,3-c]pyridine-2-carboxamide] | 20.3
12 | NS(=O)(=O)c1ccc(C(=O)N2CCC3(CC2)CC3CNC(=O)c2cc3ccncc3o2)cc1 (centres unmarked) [Example 259, N-[[6-(4-sulfamoylbenzoyl)-6-azaspiro[2.5]octan-2-yl]methyl]furo[2,3-c]pyridine-2-carboxamide] | 1200
13 | O=C(NCC1CC12CCN(C(=O)c1ccccc1Cn1ccnc1)CC2)c1cc2ccncc2o1 (centres unmarked) [Example 260, N-[[6-(2-(imidazol-1-ylmethyl)benzoyl]-6-azaspito[2.5]octan-2-yl]methyl]furo[2,3-c]pyridine-2-carboxamide] | 2000
14 | O=C(NCC1CC12CCN(C(=O)c1ccc3nccnc3c1)CC2)c1cc2ccncc2o1 (centres unmarked) [Example 261, N-[[6-(quinoxaline-6-carbonyl)-6-azaspiro[2.5]octan-2-yl]methyl]furo[2,3-c]pyridine-2-carboxamide] | 15.8
15 | O=C(NCC1CC12CCN(C(=O)c1ccc3cnccc3n1)CC2)c1cc2ccncc2o1 (centres unmarked) [Example 262, N-[[6-(1,6-naphthyridine-2-carbonyl)-6-azaspiro[2.5]octan-2-yl]methyl]furo[2,3-c]pyridine-2-carboxamide] | 79.5
16 | CC(=O)Nc1cccc(C(=O)N2CCC3(CC2)CC3CNC(=O)c2cc3ccncc3o2)c1 (centres unmarked) [Example 264, N-[[6-(3-acetamidobenzoyl)-6-azaspiro[2.5]octan-2-yl]methyl]furo[2,3-c]pyridine-2-carboxamide] | 245
17 | CC(=O)Nc1cnccc1C(=O)N1CCC2(CC1)CC2CNC(=O)c1cc2ccncc2o1 (centres unmarked) [Example 265, N-[[6-(3-acetamidopyridine-4-carbonyl)-6-azaspiro[2.5]octan-2-yl]methyl]furo[2,3-c]pyridine-2-carboxamide] | 2000
18 | O=C(NCC1CC12CCN(C(=O)c1ccc3nonc3c1)CC2)c1cc2ccncc2o1 (centres unmarked) [Example 266, N-[[6-(2,1,3-benzoxadiazole-5-carbonyl)-6-azaspiro[2.5]octan-2-yl]methyl]furo[2,3-c]pyridine-2-carboxamide] | 1470
19 | O=C(NCC1CC12CCN(C(=O)c1ccnc3ncccc13)CC2)c1cc2ccncc2o1 (centres unmarked) [Example 267, N-[[6-(1,8-naphthyridine-4-carbonyl)-6-azaspiro[2.5]octan-2-yl]methyl]furo[2,3-c]pyridine-2-carboxamide] | 2000
20 | O=C(NCC1CC12CCN(C(=O)c1cnc3ccccc3n1)CC2)c1cc2ccncc2o1 (centres unmarked) [Example 269] | 16
21 | O=C(NCC1CC12CCN(C(=O)c1ccc3cccnc3n1)CC2)c1cc2ccncc2o1 (centres unmarked) [Example 271, N-[[6-(1,8-naphthyridine-2-carbonyl)-6-azaspiro[2.5]octan-2-yl]methyl]furo[2,3-c]pyridine-2-carboxamide] | 139
22 | O=C(NCC1CC12CCN(C(=O)c1ccno1)CC2)c1cc2ccncc2o1 (centres unmarked) [Example 272, N-[[6-(isoxazole-5-carbonyl)-6-azaspiro[2.5]octan-2-yl]methyl]furo[2,3-c]pyridine-2-carboxamide] | 2000
23 | CC(C)CC(=O)N1CCC2(CC1)CC2CNC(=O)c1cc2ccncc2o1 (centres unmarked) [Example 273, N-[[6-(3-methylbutanoyl)-6-azaspiro[2.5]octan-2-yl]methyl]furo[2,3-c]pyridine-2-carboxamide] | 207
24 | CC(C)(C)OC(=O)N1CCC2(CC1)CC2CNC(=O)N1Cc2cn[nH]c2C1 (centres unmarked) [Example 274, tert-Butyl 2-[(4,6-dihydro-1H-pyrrolo[3,4-c]pyrazole-5-carbonylamino)methyl]-6-azaspiro[2.5]octane-6-carboxylate] | 2000
25 | CN1CCC(C)(CC(=O)N2CCC3(CC2)CC3CNC(=O)c2cc3ccncc3o2)CC1 (centres unmarked) [Example 275, N-([6-[2-(1,4-dimethylpiperidin-4-yl)acetyl]-6-azaspiro[2.5]octan-1-yl]methyl)furo[2,3-c]pyridine-2-carboxamide] | 17.7
26 | O=C(NCC1CC12CCN(C(=O)Cc1cccnc1)CC2)c1cc2cnccc2[nH]1 (centres unmarked) [Example 277, N-[[6-[2-(3-pyridyl)acctyl]-6-azaspiro[2.5]octan-2-yl]methyl]-1H-pyrrolo[3,2-c]pyridine-2-carboxamide] | 755
